This is an account of results in patent US20150065494A1, “AMINOSTYRYLBENZOFURAN DERIVATIVES AS INHIBITORS AGAINST BETA-AMYLOID FIBRIL FORMATION, AND PHARMACEUTICAL COMPOSITION COMPRISING SAME” (KOREA INSTITUTE OF SCIENCE AND TECHNOLOGY, priority 2012, published 2015).

Data set [1] in a line: Pharmacokinetics test (blood concentration) in mice and rats. The format is in vivo, ICR mice and SD rats. How it is done:
Three 7 week-old ICR mice (weight: approximately 30 g) and three 8 week-old SD rats (weight: approximately 250 g) were used per test group. A solution prepared by dissolving a hydrochloride salt of the compound of Example 3 in excipient (DMSO/Tween 20/saline: 0.1/0.6/2.3, v/v/v) or distilled water was administered to each experimental animal. The test compound was intravenously administered in an amount of 5 mL per kg of body weight through the fine vein or orally administered in an amount of 10 mL per kg of body weight.
At 0.5, 1, 2, 4, 10, and 24 hrs after the oral administration of the test compounds, the blood was collected from periorbital veins into the tube containing heparin (1000 IU/mL, 3 μL) for the mice, and from jugular veins for rats. The blood samples were centrifuged (12,000 rpm for 2 min, Eppendorf Co.) to obtain plasmas and the obtained plasmas were kept in a freezer until the analysis at −80° C.
50 μL of plasma was placed in a 2.0 mL tube with a cap (Eppendorf Co.) and acidified by adding 20 μL of 0.1% formic acid thereto. An internal standard solution and 1 mL of ethyl acetate as an extract solvent were added to the resulting solution. The resulting solution was mixed by using a thermomixer (Eppendorf Co.) for 5 min at 1,400 rpm, and then subjected to centrifugation (Eppendorf Co.). The supernatant was collected and concentrated at 35° C. by using a cyclone. The residue was re-dissolved in 50 μL of mobile phase and 5 μL of the resulting solution was injected into LC/MS and analyzed.
(§1) In Table 3, “iv” refers to intravenous injection; “po” refers to per oral; “AUC plasma” refers to an area under the plasma level-time curve; “Cmax” refers to a maximum plasma concentration; “Tmax” refers to a time to reach Cmax; “BA” refers to bioavailability (%) according to Equation 2 below; “AUC Brain” refers to an area under the brain tissue level-time curve; and “AUCBrain/AUCPlasma” refers to a passage rate of the test compound to the brain.
Bioavailability (%)=[(AUCpo/AUCiv)×(Doseiv/Dosepo)×100]
In the above Equation, AUCpo refers to an area under the blood concentration time curve (AUC) after per oral administration, AUCiv means an AUC after the intravenous injection; Doseiv refers to a dose of the intravenous injection; and Dosepo refers to a dose of the per os.

The next data set has as its target T1, beta-amyloid 42 (Aβ42) (Homo sapiens, UniProt P05067).
T1 construct: Beta-amyloid 42 (Aβ42) was dissolved in dimethylsulfoxide (DMSO) to form a 250 mM Aβ42 stock solution
Kind of data set: Inhibitory effect on the formation of beta-amyloid fibrils in vitro (ThT fluorescence assay). It counts as biochemical. How it is done: Beta-amyloid 42 (Aβ42) was dissolved in dimethylsulfoxide (DMSO) to form a […] Aβ42 stock solution. In addition, ThT (thioflavin T) was dissolved in distilled water to obtain a concentration of 1 mM and subsequently diluted with 50 mM glycin buffer (pH 8.5) to yield a 5 μM ThT stock solution. 45 μL of PBS (phosphate buffer saline, pH 7.4) was added to each of a 96-well fluorescence microplate (white, F-bottom). 5 μL of the 250 μM Aβ42 stock solution was added to each well. The final concentration of each compound obtained in Examples was in a range of 10 to 0.001 μM by adding 2 μL of a solution, which was prepared by dissolving the subject compounds obtained in Examples in DMSO, to each well. At this time, the final concentration of Aβ42 in each well was 25 μM. The plate was then incubated for 1 hr at room temperature, and 150 μL of the 5 μM ThT stock solution was added to each well.
The fluorescence intensity of each well was determined with the multi-label fluorescence counter (LS-55 Luminescence spectrometer: Perkin Elmer) at an excitation wavelength of 450 nm (excitation slit width: 10 nm) and an emission wavelength of 482 nm (emission slit width: 10 nm), while adjusting counting time to 1 second. The control group was prepared by adding PBS solution, Aβ42 and DMSO, without adding the inventive compound prepared above. A percent inhibition on the formation of beta-amyloid fibrils was calculated in accordance with the following equation, and IC50 was calculated by using GraphPad Prism version 4.03 Program.
% Inhibition=[1−(C−D)/(A−B)]×100
A (control group)=fluorescence intensity in a group treated with PBS solution, Aβ42 and DMSO
B (blank)=fluorescence intensity in a group treated with PBS solution and DMSO
C (experimental group)=fluorescence intensity in a group treated with PBS solution, Aβ42, the inventive compound and DMSO
D (compensation value to the experimental group) =fluorescence intensity in a group treated with PBS solution, the inventive compound and DMSO

A short description of data set [2]: Passage test through the blood-brain barrier (brain tissue concentration). The format is in vivo, ICR mice and SD rats. To be noted: for Kp: brain. On the procedure: Three 7 week-old ICR mice (weight: approximately 30 g) and three 8 week-old SD rats (weight: approximately 250 g) were used per test group. A solution prepared by dissolving a hydrochloride salt of the compound of Example 3 in excipient (DMSO/Tween 20/saline: 0.1/0.6/2.3, v/v/v) was administered to each experimental animal. The test compound was intravenously administered in an amount of 5 mL per kg of body weight through the fine vein or orally administered in an amount of 10 mL per kg of body weight.
At 0.5, 1, 2, 4, 10 and 24 hrs after the administration of the test compound, the mice and rats were subjected to insufflations narcosis using isoflorane, followed by cutting the abdomen open. Subsequently, 1 mL of blood was collected from abdominal veins into the tube containing heparin (1000 IU/mL, 3 μL). The obtained blood samples were centrifuged for 2 min at 12,000 rpm to obtain plasma. The obtained plasmas were kept in a freezer at −80° C. until the analysis.
The mice and rats from which the blood samples were obtained were subjected to bloodletting, and then, the brain tissues of the mice and rats was collected. The brain tissue thus obtained was washed with physiological saline 1 or 2 times to remove blood. The weight of the brain tissue was measured after the removal of adipose tissue and peripheral tissue. 4% bovine serum albumin (BSA) solution diluted with 10-fold was added to the brain tissue. The resulting solution was subjected to homogenization using a homogenizer. The diluted homogenate thus obtained was placed in 2 mL tube and was kept in a freezer at −80° C. until the analysis. All of the treatments to the sample were performed in ice.
50 μL of plasma was placed in a 2.0 mL tube with a cap (Eppendorf Co.). An internal standard solution and 1 mL of ethyl acetate as an extract solvent were added to the resulting solution. The resulting solution was mixed by using thermomixer (Eppendorf Co.) for 5 min at 1400 rpm, and then subjected to centrifugation (Eppendorf Co.). The supernatant was collected and concentrated at 35° C. by using a cyclone. The residue was re-dissolved in 50 μL of mobile phase and 5 μL of the resulting solution was injected into LC/MS and analyzed.
as §1

Data set [3] can be described thus: Pharmacokinetics test in mice (dose-dependent). To be noted: for AUC ratio / Cmax ratio / AUC / Cmax / Tmax / half-life: po; for AUC / Cmax / Tmax / half-life: ICR, mouse, plasma. It counts as in vivo, ICR mice. On the procedure:
Two 6 week-old ICR mice (weight: approximately 25 g) were used per test group. A solution prepared by dissolving the compound of Example 3 in distilled water was administered to each experimental animal. The test compound was orally administered in an amount of 10 mL per kg of body weight.
At 0.5, 1, 2, 4, 10 and 24 hrs after the oral administration of the test compound, the blood was collected from jugular veins into a tube containing heparin (1,000 IU/mL, 3 μL). The obtained plasmas were centrifuged (12,000 rpm, 2 min, Eppendorf), and contained in a freezer at −80° C. until analysis.
50 μL of plasma was placed in a 2.0 mL tube with a cap (Eppendorf Co.) and acidified by adding 20 μL of 0.1% formic acid thereto. An internal standard solution and 1 mL of ethyl acetate as an extract solvent were added to the resulting solution. The resulting solution was mixed by using thermomixer (Eppendorf Co.) for 5 min at 1400 rpm, and then subjected to centrifugation (Eppendorf Co.). The supernatant was collected and concentrated at 35° C. by using a cyclone. The residue was re-dissolved in 50 μL of mobile phase and 5 μL of the resulting solution was injected into LC/MS and analyzed.
In Table 4, “po” refers to per oral; “AUC plasma” refers to an area under the plasma level-time curve; “Cmax” refers to a maximum plasma concentration; and “Tmax” refers to a time to reach Cmax.

Each structure is given as a SMILES string. Like-named read-outs stand apart in the source and are kept apart here.

The AUC is concentration integrated over time. The Cmax is the maximum level reached in the sampled fluid or tissue. For orientation: Tmax means the time from dosing to the highest level. In general, inhibition refers to how much of the control response was suppressed. A higher inhibition goes with strong suppression. By half-life is commonly meant the time needed for the level to fall by half in the phase considered.

T1 sequence (P05067 672-713 limits assumed): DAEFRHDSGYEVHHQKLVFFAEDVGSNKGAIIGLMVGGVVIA

`CN(C)CCCOc1ccc2cc(/C=C/c3ccc(N(C)C)cc3)oc2c1.Cl` [Example 23, (E)-6-(3-dimethylaminopropoxy)-2-(4-dimethylaminostyryl)benzofuran hydrochloride] registered a BA in data set [1] (10.0 mg/kg po vs 5.0 mg/kg iv) of 43.4%. The molecule also yielded an AUC in data set [1] (plasma, 5.0 mg/kg, iv, n = 3) of 535 ng·h/mL. Further, in data set [1] (plasma, 10.0 mg/kg, po, n = 3), the AUC turned out to be 472 ng·h/mL, the Cmax worked out at 62.7 ng/mL and the Tmax stood at 4 h. For the same molecule, the “Aβ42 % inhibition compared with comparative compound curcumin” value on beta-amyloid 42 (Aβ42) (10 μM) is recorded as “equal to or greater than that of the comparative compound, curcumin”. Moreover, the inhibition at 10 µM against beta-amyloid 42 (Aβ42) (10 μM compound, 25 μM Aβ42, ThT fluorescence) is at least 70%. Besides, the “AUC Brain” value in data set [2] (5.0 mg/kg, iv, brain tissue) was 54,114.7 ng · h/ml. Besides, in data set [2] (10.0 mg/kg, po, brain tissue), the “AUC Brain” value was 27,412 ng · h/ml, the “Cmax (brain)” value is on record as 3,828 ng/ml and the time to peak (Tmax) was determined as 10 h. The Kp in data set [2] (5.0 mg/kg, iv, read-out: AUCBrain/AUCPlasma) turned out to be 101. For the same molecule, the Kp in data set [2] (10.0 mg/kg, po, read-out: AUCBrain/AUCPlasma) is 58.1.

`CN(C)CCCOc1ccc2cc(/C=C/c3ccc(N(C)C)cc3)oc2c1` [Example 3, (E)-6-(3-dimethylaminopropoxy)-2-(4-dimethylaminostyryl)benzofuran]: the AUC ratio in data set [3] (10 mg/kg, relative to AUC at 10 mg/kg) came out at 1.0; in data set [3] (10 mg/kg, relative to AUC at 10 mg/kg, listed as Compound of Example 3, 10 mg/kg), 1; in data set [3] (30 mg/kg, AUC (30 mg/kg)/AUC (10 mg/kg)), 4.2; in data set [3] (100 mg/kg, AUC (100 mg/kg)/AUC (10 mg/kg)) it was 10.4. The Cmax ratio in data set [3] (10 mg/kg, relative to Cmax at 10 mg/kg) is recorded as 1; in data set [3] (30 mg/kg, Cmax (30 mg/kg)/Cmax (10 mg/kg)), 4.7; in data set [3] (100 mg/kg, Cmax (100 mg/kg)/Cmax (10 mg/kg)) it was 9.4. The AUC in data set [3] (10 mg/kg) was 443 ng·h/mL; in data set [3] (30 mg/kg) it was 1890 ng·h/mL; in data set [3] (100 mg/kg), 4580 ng·h/mL. The Cmax in data set [3] (10 mg/kg) came to 40.4 ng/mL; in data set [3] (30 mg/kg), 188 ng/mL; in data set [3] (100 mg/kg), 378 ng/mL. Further, the Tmax in data set [3] (10 mg/kg) turned out to be 0.5 h; in data set [3] (30 mg/kg) it was 2 h; in data set [3] (100 mg/kg), 4 h. The half-life in data set [3] (10 mg/kg) was 4.9 h; in data set [3] (30 mg/kg), 5.4 h; in data set [3] (100 mg/kg) it was 23.5 h. In addition, the “dose-dependence of pharmacokinetics (linearity)” value in data set [3] (oral 10, 30 and 100 mg/kg) is “linear pharmacokinetics”. The Kp in data set [2] (read-out: passage ability compared with plasma (blood-brain barrier)) is at least 1.
